Experiment [1] addresses T1, EPAC1-CNB (Homo sapiens, UniProt O95398).
T1 construct: EPAC1-CNB (amino acids 169–318 of EPAC1); made in house; host or cells: BL-21 Escherichia coli (pGEX-6P-1)
T1 sequence (O95398 169-318 isoform O95398-3): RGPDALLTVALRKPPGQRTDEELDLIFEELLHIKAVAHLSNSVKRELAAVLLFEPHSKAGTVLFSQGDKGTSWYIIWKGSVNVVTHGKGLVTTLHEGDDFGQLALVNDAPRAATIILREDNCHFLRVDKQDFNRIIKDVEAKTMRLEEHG
The experiment can be described thus: 8-NBD-cAMP competition assay with EPAC1-CNB. Format: binding. The method, then: Optimisation of assay conditions was performed in 96 well black assay plates (Greiner). Comparison of reference molecules, dose response curves and pilot screen were done in black, low volume 384 assay plates (Greiner). Liquids were dispensed using a Biomek Fx laboratory automation workstation with a 96-multichannel pipetting head (Beckman Coulter) for optimisation, whereas the Echo® Liquid Handler (Labcyte) and Wellmate automated dispenser (Thermo Matrix) were employed for pilot screens (see library screening).
This was done using the optimised assay conditions developed during the study. Library compounds were transferred from pre-prepared, 1000x stock Echo® 384 LDV source plates (Labcyte) into black, low volume 384 assay plates (Greiner) at 25 nl volumes, using an Echo® Liquid Handler (Labcyte), maintaining 0.1–1% DMSO throughout. EPAC1-CNB (0.8 µM) was immediately added using a Wellmate automated dispenser (Thermo Matrix). Plates were centrifuged at 800 rpm, 10 s, and then incubated for 30 minutes, RT, to promote compound-protein complex formation. […] The assay was incubated at room temperature and the fluorescence intensity at 480/535 nm (ex/em) was measured after 4–15 hours using the Envision plate reader.

The target in experiment [2] is T1, EPAC1-CNB. The following applies: published Kd values shown for comparison; cited from earlier work.
Experiment [3] has as its target T1, EPAC1-CNB. The experiment can be described thus: Ligand observed NMR (1D and waterLOGSY) with EPAC1-CNB. Format: binding. The following applies: compound 50 µM, protein 2.5 µM. From the text: (§1) Given that I942 seems to exert selective agonist properties against EPAC1, but not EPAC2, we next sought to validate whether our isolated ligands can interact with EPAC1 and EPAC2. Ligand observed nuclear magnetic resonance (NMR) is a valuable tool for the identification and validation of small molecule ligands. We therefore used one dimensional proton (1D) and water-ligand observed by gradient spectroscopy (waterLOGSY) NMR to confirm the ability of I942 and I178 to bind to the purified CNBs of EPAC1 and EPAC2, in comparison with the commercially available EPAC1 antagonist, ESI-09[32]. In order to assess ligand/CNB interaction, 1D and waterLOGSY experiments were performed on each compound (50 µM) in the presence or absence of 2.5 µM EPAC-CNB. In the absence of protein, each test compound produced a well-resolved 1D spectrum and a region of each spectrum was chosen to display distinctive spectral peaks originating from the ligand (Fig. 6). In the absence of protein, the corresponding waterLOGSY peaks were small, or absent, due to the negligible signal produced by saturation transfer from water to the freely tumbling small molecule. […] In waterLOGSY spectra, protein-mediated saturation transfer can only occur if the protein-ligand complex has a substantial lifetime. […]
(§2) (A) One dimensional proton (1D) and waterLOGSY (WL) spectra were performed on samples containing hit compound I942 (50 µM) in the absence and presence of EPAC1-CNB, EPAC2-CNB or GST alone, as indicated (2.5 µM). […] Interaction between compound and protein was assessed through comparison of the compound alone and protein-compound sample spectra. […]
(§3) All NMR spectra were recorded on a Bruker AVANCE IIIHD 600 spectrometer equipped with a TCI cryoprobe at 285 K. Test compounds were prepared in deuterated DMSO and diluted to given experimental concentrations in NMR buffer (20 mM Na2PO4, pH 7.0, 50 mM NaCl, 0.1% (w/v) NaN3, 5% (v/v) D2O) with a final DMSO concentration below 0.1%. […] One dimensional proton (1D) and waterLOGSY spectra were recorded for all compounds tested, using pulse sequences as previously described. […]

The target of experiment [4] is T2, EPAC2-CNB (Mus musculus, UniProt Q9EQZ6).
T2 construct: EPAC2-CNB (amino acids 304–453 of EPAC2); made in house; host or cells: BL-21 Escherichia coli (pGEX-6P-1)
T2 sequence (Q9EQZ6 304-453 isoform Q9EQZ6-3): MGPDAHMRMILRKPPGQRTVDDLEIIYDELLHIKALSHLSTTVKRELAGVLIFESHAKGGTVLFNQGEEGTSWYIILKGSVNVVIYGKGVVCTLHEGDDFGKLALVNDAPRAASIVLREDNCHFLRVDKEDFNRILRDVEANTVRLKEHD
The experiment can be described thus: Ligand observed NMR (1D and waterLOGSY) with EPAC2-CNB. Type of experiment: binding. The following applies: compound 50 µM, protein 2.5 µM.
From the text: as §1, §2, §3

Experiment [5] deals with GST (Schistosoma japonicum, UniProt P08515). The experiment can be described thus: Ligand observed NMR (1D and waterLOGSY) with GST alone. Type of experiment: binding. The following applies: compound 50 µM, GST 2.5 µM.
From the text: as §1, §2, §3

Experiment [6] deals with protein kinase A (PKA). The experiment can be described thus: PKA kinase activity assay in HEK293T cell extracts. Format: biochemical. Particulars: 1 mM cAMP, compound 0.1 to 100 µM. As for the experimental part:
PKA activity was measured directly in cell extracts using the PKA Kinase Activity Assay Kit (Abcam) following the manufacturer's instructions. […] Cells were washed in ice-cold PBS containing phosphatase inhibitors, scrapped into Eppendorf tubes and centrifuged at 200 × g at 4 °C for 5 minutes. Supernatants were discarded and the cell pellet was re-suspended in Complete Lysis Buffer containing 1 mM DTT, 1 mM PMSF and protease inhibitor cocktail (Roche) and then incubated for 10 minutes on ice (on the rocking platform) followed by vortex and centrifugation at […] at 4 °C for 20 minutes. Cell extracts were then transferred to fresh Eppendorf tubes, assayed for protein content and then stored at -80 °C. […] Next, 10 μl of ATP was added to each well and incubated at 30 °C for 90 min, with gentle shaking. The reaction was stopped by aspirating the contents of each well and then 40 μl of PKA phosphospecific substrate antibody was added to each well and then the plate was covered with plastic wrap and incubated at room temperature for 60 min (with gentle shaking every 20 min). […] Fluorescence was then measured at 480/530 nm. […] PKA activity was then measured in the cell extracts using an ELISA assay according to the manufactures instructions. […]

The target in experiment [7] is T3, EPAC1 (amino acids 149–881) (Homo sapiens, UniProt O95398).
T3 construct: recombinant EPAC1 (amino acids 149–881); made in house; host or cells: bacteria
T3 sequence (O95398 149-881 isoform O95398-3): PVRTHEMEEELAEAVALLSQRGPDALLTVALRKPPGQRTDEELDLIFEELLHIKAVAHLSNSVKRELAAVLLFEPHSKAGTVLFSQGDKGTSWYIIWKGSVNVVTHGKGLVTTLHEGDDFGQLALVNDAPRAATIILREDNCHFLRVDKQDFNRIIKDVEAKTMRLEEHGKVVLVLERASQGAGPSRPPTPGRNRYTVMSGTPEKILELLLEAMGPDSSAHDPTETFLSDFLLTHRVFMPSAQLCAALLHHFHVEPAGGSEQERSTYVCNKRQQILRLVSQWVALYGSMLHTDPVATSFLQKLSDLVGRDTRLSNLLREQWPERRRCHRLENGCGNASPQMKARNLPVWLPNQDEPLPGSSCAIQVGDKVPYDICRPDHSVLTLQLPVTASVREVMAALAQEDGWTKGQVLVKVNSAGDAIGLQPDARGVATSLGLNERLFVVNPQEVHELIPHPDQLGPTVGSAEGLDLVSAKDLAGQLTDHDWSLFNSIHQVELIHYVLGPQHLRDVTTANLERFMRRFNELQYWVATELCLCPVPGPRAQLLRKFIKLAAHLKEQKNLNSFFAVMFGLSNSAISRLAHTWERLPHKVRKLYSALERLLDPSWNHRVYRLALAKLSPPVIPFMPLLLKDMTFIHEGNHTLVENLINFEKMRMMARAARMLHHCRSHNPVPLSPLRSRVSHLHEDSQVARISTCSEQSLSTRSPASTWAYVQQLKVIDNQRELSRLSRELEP
The experiment can be described thus: In vitro GEF activity assay (MANT-GDP dissociation from Rap1), EPAC1. Format: biochemical. Particulars: 500 μM compound, 500 μM cAMP. The method, then:
For this, we used the well-characterised EPAC GEF activity assay. The assay is based on the EPAC-stimulated dissociation of fluorescent MANT-GDP from recombinant Rap1 in the presence of excess non-fluorescent nucleotide.
The data are fitted as single exponential decay with off-set (red lines) to obtain the rate constants kobs, as shown in (b).
EPAC1 and EPAC2 in vitro GEF activities were calculated as previously described. Briefly, recombinant EPAC1 (amino acids 149–881) or EPAC2 (amino acids 280–993) were incubated at 100 nM with recombinant Rap1 (200 nM) preloaded with the fluorescent GDP analogue 2′/3′-O-(N-Methylanthraniloyl)guanosine 5-diphosphate (MANT-GDP) in the presence of 20 μM GDP and then the fluorescence intensity was measured at 360/450 nm (ex/em) over time. […] AC50 or IC50 values were determined from the plots of kobs against the concentration of the agonist and antagonist, respectively Table 1.

Where [8] appears, read: 7-point dose response, 75 µM top concentration, 0.75% DMSO, read-out: IC50, 8-NBD-cAMP binding assay.
The mark [9] stands for this setting: 8-NBD-cAMP 62.5 nM, EPAC1-CNB 0.8 µM, known competitor compounds, read-out: IC50, inhibition of 8-NBD-cAMP fluorescence.

Like-named read-outs stand apart in the source and are kept apart here. Bounds are passed on as bounds.

The source of these data is publication PMC5428521, “Identification of a Novel, Small Molecule Partial Agonist for the Cyclic AMP Sensor, EPAC1” (Scientific Reports, 2017).

Chain of GST (P08515 whole entry): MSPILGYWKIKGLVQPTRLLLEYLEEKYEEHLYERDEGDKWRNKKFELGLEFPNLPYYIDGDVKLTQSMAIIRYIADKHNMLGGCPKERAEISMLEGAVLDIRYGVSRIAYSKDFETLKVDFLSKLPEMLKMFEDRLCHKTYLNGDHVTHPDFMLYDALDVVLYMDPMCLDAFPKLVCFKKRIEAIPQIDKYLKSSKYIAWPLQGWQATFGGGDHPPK

The term IC50 denotes the point on the concentration scale where inhibition reaches its midpoint. On to “N-[(4-chlorophenyl)sulfonyl]-2-(1-naphthyloxy)acetamide [I288]”, for which the IC50 in experiment [1] (setting [8]) was roughly 70000 nM.

By Kd is commonly meant a measure of binding affinity in units of concentration. As to `CO[C@@H]1[C@@H]2OP(=O)(O)OC[C@H]2O[C@H]1n1c(Sc2ccc(Cl)cc2)nc2c(N)ncnc21` [compound 007, 8-pCPT-2′-O-Me-cAMP, reference compound], the concentration for half-maximal inhibition (IC50) in experiment [1] (setting [9]) was 1670 nM. Further, in experiment [2], the dissociation constant (Kd) was 630 nM.

For the compound `CC(C)(C)c1cc(C(=O)C(C#N)=NNc2cccc(Cl)c2)no1` [ESI-09, 3-(5-tert-butyl-isoxazol-3-yl)-2-[(3-chloro-phenyl)-hydrazonol]-3-oxo-propionitrile, reference compound], the NMR interaction result in experiment [3] and in experiment [4] was “attenuated” each time. Also, the “NMR interaction with GST alone” value in experiment [5] was “may interact non-specifically with GST”.

As to `O=S(=O)(NCCNC/C=C/c1ccc(Br)cc1)c1cccc2cnccc12` [H-89, reference compound], in experiment [6], the “effect on PKA activity induced by cAMP” value is reported as “dose-dependent inhibition”.

`CC(=O)Nc1cccc(OCC(=O)NS(=O)(=O)c2ccc(C)cc2)c1` [I516, 2-[3-(acetylamino)phenoxy]-N-[(4-methylphenyl)sulfonyl]acetamide]: the half-inhibitory concentration (IC50) in experiment [1] (setting [8]) was greater than 75000 nM. In addition, the “inhibition of cAMP-induced EPAC1 activity” value in experiment [7] is “no detectable inhibitory effect”.

As for `Nc1ncnc2c1nc(Sc1ccc(Cl)cc1)n2[C@@H]1O[C@@H]2COP(=O)(O)O[C@H]2[C@H]1O` [8-CPT, 8-CPT-cAMP, reference compound], the half-inhibitory concentration (IC50) in experiment [1] (setting [9]) was determined as 530 nM. In addition, the Kd in experiment [2] is 40 nM.
